Source: PubChem BioAssay (NCI)
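GI50 is the concentration that inhibits growth by half. TGI is the concentration that stops growth completely.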

What was measured:
Assay in all cases: inhibition of tumour cell growth, NCI panel, 384-well format
U251 glioblastoma = tested on: U251 glioblastoma
NCI-H522 lung = tested on: NCI-H522 lung
HL-60(TB) leukemia = tested on: HL-60(TB) leukemia
NCI-H226 lung = tested on: NCI-H226 lung
786-0 renal = tested on: 786-0 renal
HCT-116 colon = tested on: HCT-116 colon
EKVX NSCLC = tested on: EKVX NSCLC
TK-10 renal = tested on: TK-10 renal
DU-145 prostate = tested on: DU-145 prostate
SNB-19 CNS = tested on: SNB-19 CNS
HOP-92 NSCLC = tested on: HOP-92 NSCLC
RXF 393 renal = tested on: RXF 393 renal
MDA-MB-468 breast = tested on: MDA-MB-468 breast
SF-295 CNS = tested on: SF-295 CNS
MDA-MB-435 melanoma = tested on: MDA-MB-435 melanoma
HT29 colon = tested on: HT29 colon
SK-OV-3 ovarian = tested on: SK-OV-3 ovarian
HS 578T breast = tested on: HS 578T breast
CAKI-1 renal = tested on: CAKI-1 renal
SW-620 colon = tested on: SW-620 colon
K-562 leukemia = tested on: K-562 leukemia
OVCAR-4 ovarian = tested on: OVCAR-4 ovarian
NCI/ADR-RES ovarian = tested on: NCI/ADR-RES ovarian
SK-MEL-28 melanoma = tested on: SK-MEL-28 melanoma
OVCAR-8 ovarian = tested on: OVCAR-8 ovarian
SF-268 CNS = tested on: SF-268 CNS
A498 renal = tested on: A498 renal
BT-549 breast = tested on: BT-549 breast
HCT-15 colon = tested on: HCT-15 colon

For `Cn1ncc(C#N)c1-c1ccc2c(c1)CN([C@H](CN)Cc1cccc(F)c1)C2=O`, the GI50 (U251 glioblastoma) was 11.1 µM, the TGI (U251 glioblastoma) was 68.7 µM and the GI50 (NCI-H522 lung) was 13.3 µM. The TGI (NCI-H522 lung) was 27 µM, the GI50 (HL-60(TB) leukemia) was 15.9 µM and the TGI (HL-60(TB) leukemia) was 29.5 µM. It also gave a GI50 (NCI-H226 lung) of 14.4 µM, a TGI (NCI-H226 lung) of 39.1 µM and a GI50 ([…]-0 renal) of 0.324 µM. It also gave a TGI (786-0 renal) of 21.2 µM, a GI50 (HCT-116 colon) of 10.8 µM and a TGI (HCT-116 colon) of 23.2 µM. It also gave a GI50 (EKVX NSCLC) of 11.1 µM, a TGI (EKVX NSCLC) of 40.3 µM and a GI50 (TK-10 renal) of 10.1 µM. For the same compound, the TGI (TK-10 renal) was 42.8 µM, the GI50 (DU-145 prostate) was 16.5 µM and the TGI (DU-145 prostate) was 44.9 µM. The GI50 (SNB-19 CNS) was 13.7 µM, the TGI (SNB-19 CNS) was 67.3 µM and the GI50 (HOP-92 NSCLC) was 6.45 µM. It also gave a TGI (HOP-92 NSCLC) of 31.4 µM, a GI50 (RXF 393 renal) of 0.433 µM and a TGI (RXF 393 renal) of 11.9 µM. For the same compound, the GI50 (MDA-MB-468 breast) was 0.0967 µM, the TGI (MDA-MB-468 breast) was 3.28 µM and the GI50 (SF-295 CNS) was 0.668 µM. It also gave a TGI (SF-295 CNS) of 16.5 µM, a GI50 (MDA-MB-435 melanoma) of 15.8 µM and a TGI (MDA-MB-435 melanoma) of 43.3 µM. It also gave a GI50 (HT29 colon) of 4.87 µM, a TGI (HT29 colon) of 94.5 µM and a GI50 (SK-OV-3 ovarian) of 0.534 µM. It also gave a TGI (SK-OV-3 ovarian) of 23.2 µM, a GI50 (HS 578T breast) of 1.57 µM and a TGI (HS 578T breast) of 19.8 µM. It also gave a GI50 (CAKI-1 renal) of 5.91 µM, a TGI (CAKI-1 renal) of 40.8 µM and a GI50 (SW-620 colon) of 27.5 µM. The TGI (SW-620 colon) was 82 µM, the GI50 (K-562 leukemia) was 15.3 µM and the TGI (K-562 leukemia) was 43.7 µM. It also gave a GI50 (OVCAR-4 ovarian) of 35.7 µM, a TGI (OVCAR-4 ovarian) greater than 100 µM and a GI50 (NCI/ADR-RES ovarian) greater than 100 µM. It also gave a TGI (NCI/ADR-RES ovarian) greater than 100 µM, a GI50 (SK-MEL-28 melanoma) of 3.34 µM and a TGI (SK-MEL-28 melanoma) of 33.4 µM. The GI50 (OVCAR-8 ovarian) was 24.3 µM, the TGI (OVCAR-8 ovarian) was greater than 100 µM and the GI50 (SF-268 CNS) was 19.2 µM. The TGI (SF-268 CNS) was 58.5 µM, the GI50 (A498 renal) was 0.269 µM and the TGI (A498 renal) was 16.7 µM. The GI50 (BT-549 breast) was 0.943 µM, the TGI (BT-549 breast) was 17.9 µM and the GI50 (HCT-15 colon) was 16.3 µM.
